The values that follow come from article PMC12095047, “Transport of phenoxyacetic acid herbicides by PIN-FORMED auxin transporters” (Nature Plants, 2025).

What all share (assay type): biochemical
The target in assay [1] is T1, wild-type PIN8 proteoliposomes (Arabidopsis thaliana, UniProt Q9LFP6).
T1 construct: made in house
T1 sequence (Q9LFP6 1-367): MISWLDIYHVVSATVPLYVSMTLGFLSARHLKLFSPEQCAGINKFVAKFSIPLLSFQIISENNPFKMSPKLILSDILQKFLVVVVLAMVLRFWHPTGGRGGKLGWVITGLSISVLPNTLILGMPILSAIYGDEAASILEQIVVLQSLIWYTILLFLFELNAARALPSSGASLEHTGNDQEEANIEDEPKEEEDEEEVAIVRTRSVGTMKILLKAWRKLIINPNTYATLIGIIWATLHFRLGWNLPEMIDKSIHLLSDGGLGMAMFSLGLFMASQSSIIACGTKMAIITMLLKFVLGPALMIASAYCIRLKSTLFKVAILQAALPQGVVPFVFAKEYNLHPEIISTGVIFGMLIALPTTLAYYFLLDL
Kind of assay: SSM electrophysiology, peak width (FWHM) of current response at LPR10 and LPR50. Conditions: for Rel. FWHM (% of LPR10): replicates; for peak width of SSM-based current response as a function of lipid-to-protein ratio (LPR): LPR10 versus LPR50. As to the method: (§1) SSM, using a SURFE2R N1 from Nanion Technologies, was conducted as described. In brief, soy polar lipid mix (38% phosphatidyl choline, 30% phosphatidyl ethanolamine, 18% phosphatidyl inositol, 7% phosphatidic acid and 7% other soy lipids) and 1-palmitoyl-2-oleoyl-sn-glycero-3-phosphocholin were purchased from Avanti. Liposomes were prepared in Ringer solution without Ca^2+ (115 mM NaCl, 2.5 mM KCl, 1 mM NaHCO3, 10 mM HEPES pH7.4, 1 mM MgCl2) and homogenized using a Lipsofast (Avestin) with a […]. Triton X-100 was added to the liposomes to a final concentration of 1% (v/v). Protein was added to liposomes to a calculated lipid-to-protein ratio (LPR) of 10 unless stated otherwise. The detergent was removed using 400 mg ml^−1 Bio Beads (BioRad) overnight at 4 °C in a rotary shaker. Proteoliposomes were frozen in liquid nitrogen and kept at −80 °C until use. Proteoliposomes were diluted 1:5 in Ringer solution without Ca^2+, sonicated five times and then applied to the sensors by centrifugation (30 min, 3,000 g, 4 °C). Non-activating buffer was Ringer solution without Ca^2+ as described unless specified otherwise, and activating buffer contained the substrate of interest. In most instances we used a single-solution exchange experiment. In this case proteoliposomes, immobilized on the supported membrane, are kept in non-activating buffer as specified. At the beginning of the experiment the non-activating buffer is replaced with fresh identical non-activating buffer, and after 1 s, activating buffer (same buffer containing substrate) is added. After another second, the buffer is replaced with non-activating buffer again. Current response is recorded throughout the entire 3 s. For competition or inhibition, the respective compound was present in non-activating and activating solutions. Each experiment was performed on at least two individual sensors. On each sensor each measurement consists of three technical replicates where the mean is calculated. KD values were determined as described previously. Briefly, the binding current induced by 100 µM NPA was recorded in the presence of different concentrations of the substrate under investigation ranging between 0 µM and 1,000 µM present in the activating solution and the non-activating solution (Extended Data Fig. 5b). […] The maximum peak current was then plotted as a function of the concentration of the substrate under investigation and plotted against the degree of inhibition and fitted with a one-site binding model using GraphPad Prism V10.4.1 The half maximal concentration corresponds to the KD of the substrate under investigation.

In the next assay the target is T2, A. thaliana PIN8 (Arabidopsis thaliana, UniProt Q9LFP6).
T2 construct: made in house
T2 sequence (Q9LFP6 1-367): T1 sequence (Q9LFP6 1-367)
Kind of assay: SSM electrophysiology, peak current response on PIN8 proteoliposomes. Conditions: for EC50 / maximal current Imax: WT PIN8 proteoliposomes, Michaelis–Menten fit; for Peak current: individual sensors; for Peak current (nA): Sensor 1-3. As to the method: as §1

The next assay concerns the target T3, PIN8 N117A (Arabidopsis thaliana, UniProt Q9LFP6, N117A).
T3 construct: made in house
Kind of assay: SSM electrophysiology peak current, PIN8 N117A proteoliposomes. As to conditions: for Relative Peak Current of WT (%): replicates; for current response / function of PIN8 N117A: N117A mutation. As to the method: as §1
The protocol for expression and purification of AtPIN8 protein (Uniprot: Q9LFP6) in lauryl maltose neopentyl glycol was described previously. All point mutants were generated using Q5 Site-Directed mutagenesis kit (New England Biolabs). The C-flat Holey Carbon grids (CF-1.2/1.3, Cu-300 mesh) were glow-discharged for 45 s at 15 mA in a GloQube Plus (Quorum). […] After 1 h of incubation on ice, the sample was centrifuged at 16,000 g for 15 min before blotting to remove precipitation. A drop of 4 µl of each sample was applied to the glow-discharged grids, blotted with a Vitrobot Mark IV (ThermoFisher Scientific) using the following settings (temperature 4 °C, 100% humidity, blot time of 4 s, blot force −1) and vitrified in liquid ethane.

What is called EC50 is the concentration giving half of the maximal effect.

“And” between values parts separate entries of the source, which are not always exact repeats. Equal entries are not always repeated. “Also recorded” adds a separate entry of the source.

T3 sequence (Q9LFP6 whole entry N117A): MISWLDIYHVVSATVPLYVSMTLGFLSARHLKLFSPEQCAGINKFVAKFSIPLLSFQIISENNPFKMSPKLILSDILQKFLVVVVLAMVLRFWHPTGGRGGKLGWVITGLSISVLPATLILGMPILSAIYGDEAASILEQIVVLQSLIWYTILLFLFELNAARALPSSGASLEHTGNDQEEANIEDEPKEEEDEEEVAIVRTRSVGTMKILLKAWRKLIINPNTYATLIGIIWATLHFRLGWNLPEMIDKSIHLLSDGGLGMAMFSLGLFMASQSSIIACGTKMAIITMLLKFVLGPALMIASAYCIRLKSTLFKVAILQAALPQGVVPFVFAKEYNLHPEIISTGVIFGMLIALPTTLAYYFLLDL

Consider `O=C(O)Cc1c[nH]c2ccccc12` [IAA, indole-3-acetic acid], for which the “Rel. FWHM (% of LPR10)” value in assay [1] (LPR10) is 1.043 % of LPR10 and 0.9783 % of LPR10 (2×); in assay [1] (LPR50) it was 2.022 % of LPR10 (2×) and 1.957 % of LPR10. For the same compound, the “peak width of SSM-based current response as a function of lipid-to-protein ratio (LPR)” value (shortened to “peak width … of lipid-to-protein ratio (LPR)”) in assay [1] was “vary with lipid-to-protein ratio (LPR)”. For the same compound, the EC50 at A. thaliana PIN8 was 250 µM and 254 µM. For the same compound, at A. thaliana PIN8, the “maximal current Imax” value stood at 18 ± 3 nA. Moreover, the Peak current at A. thaliana PIN8 (WT, 5 µM substrate) is 0.8096 nA and 0.6401 nA and 0.949 nA; on A. thaliana PIN8 (WT, 20 µM substrate), 1.842 nA and 1.724 nA and 2.164 nA; at A. thaliana PIN8 (WT, 50 µM substrate), 3.368 nA and 3.292 nA and 4.115 nA; on A. thaliana PIN8 (WT, 100 µM substrate) it was 4.516 nA and 4.8122 nA and 5.921 nA; on A. thaliana PIN8 (WT, 500 µM substrate), 9.827 nA and 10.2734 nA and 12.6135 nA; at A. thaliana PIN8 (WT, 1000 µM substrate) it was 13.1379 nA and 13.1579 nA and 16.4113 nA. In addition, the Peak current on A. thaliana PIN8 (WT, 2000 µM substrate) was 14.7357 nA and 15.0585 nA and 18.9117 nA. In addition, the “Peak current (nA)” value on A. thaliana PIN8 ([IAA] 5 µM) was 0.04999 nA and 0.08856 nA and 0.0843 nA; at A. thaliana PIN8 ([IAA] 50 µM), 0.4222 nA and 0.6123 nA and 0.4745 nA; at A. thaliana PIN8 ([IAA] 100 µM), 0.6662 nA and 0.8986 nA and 0.7119 nA; at A. thaliana PIN8 ([IAA] 500 µM) it was 1.469 nA and 1.771 nA and 1.558 nA; at A. thaliana PIN8 ([IAA] 1000 µM) it was 1.848 nA and 2.271 nA and 1.967 nA; at A. thaliana PIN8 ([IAA] 2000 µM), 2.237 nA and 2.442 nA and 2.41 nA. The “Relative Peak Current of WT (%)” value was 3.5397% and 5.375% and 9.48% and 13.4511% at PIN8 N117A (Substrate IAA, 100µM); 11.8985% and 14.7068% and 17.3968% and 15.4928% on PIN8 N117A (Substrate IAA, 2mM).
Consider `O=C(O)COc1ccc(Cl)cc1` [4-CPA, 4-chlorophenoxyacetic acid], for which the “Rel. FWHM (% of LPR10)” value in assay [1] (LPR10) is 1.033 % of LPR10 and 0.9836 % of LPR10 (2×); in assay [1] (LPR50) it was 1.475 % of LPR10 (2×) and 1.328 % of LPR10 and 1.377 % of LPR10. The “peak width … of lipid-to-protein ratio (LPR)” value in assay [1] is reported as “vary with lipid-to-protein ratio (LPR)”. Also, the Peak current at A. thaliana PIN8 (2 mM 4-CPA, absence of NPA) is 6.735 nA and 9.149 nA; on A. thaliana PIN8 (2 mM 4-CPA, presence of 20 µM NPA), 3.357 nA; at A. thaliana PIN8 (WT, 5 µM substrate) it was 0.07132 nA and 0.09263 nA and 0.01805 nA; at A. thaliana PIN8 (WT, 20 µM substrate), 0.2459 nA and 0.3985 nA and 0.3482 nA; on A. thaliana PIN8 (WT, 50 µM substrate), 0.634 nA and 0.9337 nA and 0.8708 nA; on A. thaliana PIN8 (WT, 100 µM substrate), 1.233 nA and 1.738 nA and 1.591 nA. In addition, the Peak current was 3.698 nA and 5.58 nA and 4.779 nA on A. thaliana PIN8 (WT, 500 µM substrate); 5.355 nA and 8.269 nA and 6.9634 nA on A. thaliana PIN8 (WT, 1000 µM substrate); 7.157 nA and 9.571 nA and 9.556 nA at A. thaliana PIN8 (WT, 2000 µM substrate). For the same compound, the EC50 on A. thaliana PIN8 was found to be 800 ± 200 µM. The “maximal current Imax” value at A. thaliana PIN8 is given as 12 ± 2 nA. For the same compound, the “current response / function of PIN8 N117A” value at PIN8 N117A is “abolishes the current response”. The “Relative Peak Current of WT (%)” value was 1.438% and 7.087% and 13.2919% and 50.142% on PIN8 N117A (Substrate 4-CPA, 100µM); 17.5134% and 20.2019% and 18.4651% and 19.2453% on PIN8 N117A (Substrate 4-CPA, 2mM).
On to `O=C(O)COc1ccc(Cl)cc1Cl` [2,4-D, 2,4-dichlorophenoxyacetic acid], for which, in assay [1], the “peak width … of lipid-to-protein ratio (LPR)” value is listed as “vary with lipid-to-protein ratio (LPR)”. The Peak current at A. thaliana PIN8 (100 μM 2,4-D, absence of NPA) is 3.226 nA and 5.875 nA; on A. thaliana PIN8 (100 μM 2,4-D, presence of 20 µM NPA) it was 0.9715 nA and 1.501 nA and 1.34 nA; at A. thaliana PIN8 (WT, 5 µM substrate), 0.6835 nA and 0.6464 nA and 0.7573 nA; at A. thaliana PIN8 (WT, 20 µM substrate) it was 2.106 nA and 1.934 nA and 2.262 nA; on A. thaliana PIN8 (WT, 50 µM substrate) it was 4.032 nA and 3.705 nA; at A. thaliana PIN8 (WT, 2000 µM substrate), 15.4919 nA and 14.1952 nA and 17.3107 nA. Further, the EC50 on A. thaliana PIN8 was 180 µM and 179 µM. The “maximal current Imax” value on A. thaliana PIN8 is given as 17 ± 2 nA. Also, the “current response / function of PIN8 N117A” value at PIN8 N117A is recorded as “abolishes the current response; also recorded: abolishes function”. The “Relative Peak Current of WT (%)” value at PIN8 N117A (Substrate 2,4-D, 2mM) was 22.8804% and 23.9685% and 24.9449% and 20.0988%; on PIN8 N117A (Substrate 2,4-D), 9.311% and 12.1121% and 13.3294% and 14.1031%.
